Source: patent publication US12606541B2, “PPARg modulators and methods of use” (Eisai R&D Management Co., Ltd., priority 2020, dated 2026)

Columns and labels:
His6-TEV-PPARγ-(234-505) = target: T1, His6-TEV-PPARγ-(234-505) (Homo sapiens, UniProt P37231); experiment: TR-FRET Assay to Measure Co-R Peptide Recruitment to PPARγ; assay type: biochemical; conditions: Co-R peptide (SMRT-ID2) recruitment; top final concentration 20 μM; read-out: TR-FRET i-Ag; AC50
T1 construct: The His6-TEV-PPARγ-(234-505) protein for assay was expressed and purified; TEV cleavage site (N); made in house
T1 sequence (P37231 234-505): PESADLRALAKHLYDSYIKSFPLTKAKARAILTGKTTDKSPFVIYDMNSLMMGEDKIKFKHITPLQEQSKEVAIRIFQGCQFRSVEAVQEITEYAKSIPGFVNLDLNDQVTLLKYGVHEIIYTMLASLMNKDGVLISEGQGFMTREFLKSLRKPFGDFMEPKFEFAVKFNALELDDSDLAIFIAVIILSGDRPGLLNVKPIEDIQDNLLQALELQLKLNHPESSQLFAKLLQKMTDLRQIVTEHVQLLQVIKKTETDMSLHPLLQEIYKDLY
In short: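 Corepressor recruitment is measured by adding terbium-labeled anti-His antibody and FITC SMRT-ID2 peptide, at 5 and 200 nM final, after a 20-minute room-temperature protein–compound incubation. After one further hour, signal is converted to percent response between DMSO and 500 nM T0070907 wells.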

UM-UC-9 engineered cells = experiment: Cell proliferation / short-term viability assay, CellTiter-Glo 144 h; assay type: cell-based, human; conditions: read-out: CTGlo 144 h UMUC9.5, G150
In short: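 Viability read by CellTiter-Glo 2.0 luminescence at day 7 versus DMSO-vehicle wells and a T0 plate measured on day 0. Cells: UM-UC-9 engineered assay-ready stocks, 500 cells/well in high-glucose DMEM with 10% FBS, 37° C, 5% CO2.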

Compound	AC50 (His6-TEV-PPARγ-(234-505))	IC50 (UM-UC-9 engineered cells)
COc1cc(-c2cc(C(=O)N3CCC(C(=O)NCc4nccnc4C4CC4CO)CC34CC4)n[nH]2)c(F)cn1 (mixture of isomers) [Example 481, (S)-4-(5-(5-fluoro-2-methoxypyridin-4-yl)-1H-pyrazole-3-carbonyl)-N-((3-((1S,2S)-2-(hydroxymethyl)cyclopropyl)pyrazin-2-yl)methyl)-4-azaspiro[2.5]octane-7-carboxamide and (S)-4-(5-(5-fluoro-2-methoxypyridin-4-yl)-1H-pyrazole-3-carbonyl)-N-((3-((1R,2R)-2-(hydroxymethyl)cyclopropyl)pyrazin-2-yl)methyl)-4-azaspiro[2.5]octane-7-carboxamide]	129 nM	1220 nM
COc1cc(-c2cc(C(=O)N3CCC(C(=O)NC4CCN(c5ccc(C#N)cn5)C4)CC34CC4)n[nH]2)c(F)cn1 (mixture of isomers) [Example 489, (S)—N—((R)-1-(5-cyanopyridin-2-yl)pyrrolidin-3-yl)-4-(5-(5-fluoro-2-methoxypyridin-4-yl)-1H-pyrazole-3-carbonyl)-4-azaspiro[2.5]octane-7-carboxamide and (S)—N—((S)-1-(5-cyanopyridin-2-yl)pyrrolidin-3-yl)-4-(5-(5-fluoro-2-methoxypyridin-4-yl)-1H-pyrazole-3-carbonyl)-4-azaspiro[2.5]octane-7-carboxamide]	0.7 nM	5.5 nM
COc1cc(-c2cc(C(=O)N3CCC(C(=O)NC4CN(c5cnc(C)cn5)CC4(F)F)CC34CC4)n[nH]2)c(F)cn1 (mixture of isomers) [Example 490, (S)—N—((S)-4,4-difluoro-1-(5-methylpyrazin-2-yl)pyrrolidin-3-yl)-4-(5-(5-fluoro-2-methoxypyridin-4-yl)-1H-pyrazole-3-carbonyl)-4-azaspiro[2.5]octane-7-carboxamide and (S)—N—((R)-4,4-difluoro-1-(5-methylpyrazin-2-yl)pyrrolidin-3-yl)-4-(5-(5-fluoro-2-methoxypyridin-4-yl)-1H-pyrazole-3-carbonyl)-4-azaspiro[2.5]octane-7-carboxamide]	1.9 nM	17.3 nM
COc1cc(-c2cc(C(=O)N3CCC(C(=O)NC4CCCn5c(C)nnc54)CC34CC4)n[nH]2)c(F)cn1 (mixture of isomers) [Example 492, (S)-4-(5-(5-fluoro-2-methoxypyridin-4-yl)-1H-pyrazole-3-carbonyl)-N—((S)-3-methyl-5,6,7,8-tetrahydro-[1,2,4]triazolo[4,3-a]pyridin-8-yl)-4-azaspiro[2.5]octane-7-carboxamide and (S)-4-(5-(5-fluoro-2-methoxypyridin-4-yl)-1H-pyrazole-3-carbonyl)-N—((R)-3-methyl-5,6,7,8-tetrahydro-[1,2,4]triazolo[4,3-a]pyridin-8-yl)-4-azaspiro[2.5]octane-7-carboxamide]	454 nM	> 10000 nM
COc1cc(-c2cc(C(=O)N3CCC(C(=O)Nc4cnn5cc(C(C)O)ccc45)CC34CC4)n[nH]2)c(F)cn1 (mixture of isomers) [Example 495, (S)-4-(5-(5-fluoro-2-methoxypyridin-4-yl)-1H-pyrazole-3-carbonyl)-N-(6-((S)-1-hydroxyethyl)pyrazolo[1,5-a]pyridin-3-yl)-4-azaspiro[2.5]octane-7-carboxamide and (S)-4-(5-(5-fluoro-2-methoxypyridin-4-yl)-1H-pyrazole-3-carbonyl)-N-(6-((R)-1-hydroxyethyl)pyrazolo[1,5-a]pyridin-3-yl)-4-azaspiro[2.5]octane-7-carboxamide]	15.7 nM	186 nM
